Laboratory results reported in PubChem BioAssay AID330 (DTP/NCI, 2004).
“And” between values parts separate entries of the source, which are not always exact repeats. Equal values may be shown once. Inconclusive results and toxic doses are left out.

Test system: P388 leukemia ip, CD2F1 mice, survival T/C
Assay: NCI In Vivo Anticancer Drug Screen. Data for tumor model P388 Leukemia (intraperitoneal) in CD2F1 (CDF1) mice
Conditions: endpoint: median survival time, higher = longer survival
Procedure, shortened: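 Mice carrying the transplanted tumor received test compound or vehicle. Survival was recorded in each group, and the value is the treated-group measurement divided by that of the vehicle-treated control group.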

[1] = dose: 50.0 mg/kg/injection, schedule: Q01DX005 (ip), vehicle: saline
[2] = dose: 50.0 mg/kg/injection, schedule: Q01DX009 (ip), vehicle: water
[3] = dose: 100.0 mg/kg/injection, schedule: Q01DX009 (ip), vehicle: water
[4] = dose: 60.0 mg/kg/injection, schedule: Q01DX005 (ip), vehicle: saline with Tween-80
[5] = dose: 120.0 mg/kg/injection, schedule: Q01DX005 (ip), vehicle: saline with Tween-80
[6] = dose: 240.0 mg/kg/injection, schedule: Q01DX005 (ip), vehicle: saline with Tween-80
[7] = dose: 100.0 mg/kg/injection, schedule: Q01DX009 (ip), vehicle: saline
[8] = dose: 200.0 mg/kg/injection, schedule: Q01DX009 (ip), vehicle: saline
[9] = dose: 50.0 mg/kg/injection, schedule: Q01DX005 (ip), vehicle: Klucel (hydroxypropylcellulose) (HPC)
[10] = dose: 100.0 mg/kg/injection, schedule: Q01DX005 (ip), vehicle: Klucel (hydroxypropylcellulose) (HPC)
[11] = dose: 200.0 mg/kg/injection, schedule: Q01DX005 (ip), vehicle: Klucel (hydroxypropylcellulose) (HPC)
[12] = dose: 50.0 mg/kg/injection, schedule: Q01DX009 (ip), vehicle: saline

## C/C=C1\C[C@@H]2C(OC)Nc3cc(O)c(OC)cc3C(=O)N2C1 (stereo partly specified)
dose: 0.01 mg/kg/injection, schedule: Q04DX003 (ip), vehicle: other
  T/C: 97 % of control
dose: 0.03 mg/kg/injection, schedule: Q04DX003 (ip), vehicle: other
  T/C: 114 % of control
dose: 0.1 mg/kg/injection, schedule: Q04DX003 (ip), vehicle: other
  T/C: 123 % of control
dose: 0.13 mg/kg/injection, schedule: Q04DX003 (ip), vehicle: other
  T/C: 160 % of control
dose: 0.25 mg/kg/injection, schedule: Q04DX003 (ip), vehicle: other
  T/C: 163 % of control
dose: 0.3 mg/kg/injection, schedule: Q04DX003 (ip), vehicle: other
  T/C: 161 % of control
dose: 0.5 mg/kg/injection, schedule: Q04DX003 (ip), vehicle: other
  T/C: 168 % of control
dose: 1.0 mg/kg/injection, schedule: Q04DX003 (ip), vehicle: other
  T/C: 93 % of control
dose: 1.0 micrograms/kg/injection, schedule: Q01DX009 (ip), vehicle: other
  T/C: 110 % of control
dose: 3.0 micrograms/kg/injection, schedule: Q01DX009 (ip), vehicle: other
  T/C: 102 % of control
dose: 10.0 micrograms/kg/injection, schedule: Q01DX009 (ip), vehicle: other
  T/C: 118 % of control
dose: 100.0 micrograms/kg/injection, schedule: Q01DX009 (ip), vehicle: other
  T/C: 168 % of control
dose: 300.0 micrograms/kg/injection, schedule: Q01DX009 (ip), vehicle: other
  T/C: 200 % of control

## C=[CH][Sn]([CH]=C)([c]1ccccc1)[c]1ccccc1
[1]
  T/C: 107 % of control
dose: 100.0 mg/kg/injection, schedule: Q01DX005 (ip), vehicle: saline
  T/C: 108 % of control
dose: 200.0 mg/kg/injection, schedule: Q01DX005 (ip), vehicle: saline
  T/C: 104 % of control

## N#C/C(C(=N)c1ccccc1)=C1\SS/C(=C(\C#N)C(=N)c2ccccc2)S1
dose: 1.56 mg/kg/injection, schedule: Q01DX009 (ip), vehicle: saline with Tween-80
  T/C: 99 % of control and 90 % of control
dose: 3.13 mg/kg/injection, schedule: Q01DX009 (ip), vehicle: saline with Tween-80
  T/C: 99 % of control and 103 % of control
dose: 6.25 mg/kg/injection, schedule: Q01DX009 (ip), vehicle: saline with Tween-80
  T/C: 104 % of control and 86 % of control and 90 % of control
dose: 12.5 mg/kg/injection, schedule: Q01DX009 (ip), vehicle: saline with Tween-80
  T/C: 86 % of control and 97 % of control
dose: 25.0 mg/kg/injection, schedule: Q01DX009 (ip), vehicle: saline with Tween-80
  T/C: 86 % of control
dose: 50.0 mg/kg/injection, schedule: Q01DX009 (ip), vehicle: saline with Tween-80
  T/C: 105 % of control
dose: 100.0 mg/kg/injection, schedule: Q01DX009 (ip), vehicle: saline with Tween-80
  T/C: 107 % of control
dose: 200.0 mg/kg/injection, schedule: Q01DX009 (ip), vehicle: saline with Tween-80
  T/C: 105 % of control

## CN(C)c1ccc2c(=O)c(C(=O)O)c[nH]c2c1
dose: 6.25 mg/kg/injection, schedule: Q01DX005 (ip), vehicle: saline
  T/C: 96 % of control
dose: 12.5 mg/kg/injection, schedule: Q01DX005 (ip), vehicle: saline
  T/C: 100 % of control
dose: 25.0 mg/kg/injection, schedule: Q01DX005 (ip), vehicle: saline
  T/C: 96 % of control
dose: 25.0 mg/kg/injection, schedule: Q01DX009 (ip), vehicle: water
  T/C: 99 % of control
[1]
  T/C: 95 % of control
[2]
  T/C: 101 % of control
[3]
  T/C: 94 % of control
dose: 200.0 mg/kg/injection, schedule: Q01DX009 (ip), vehicle: water
  T/C: 89 % of control
dose: 400.0 mg/kg/injection, schedule: Q01DX009 (ip), vehicle: water
  T/C: 93 % of control

## Cc1cc2cc3c(c(C(=O)O)c2o1)C(=O)c1ccccc1C3
[4]
  T/C: 107 % of control
[5]
  T/C: 111 % of control
[6]
  T/C: 94 % of control

## S=C(S)NN1CCOCC1
[7]
  T/C: 88 % of control
[8]
  T/C: 110 % of control
dose: 400.0 mg/kg/injection, schedule: Q01DX009 (ip), vehicle: saline
  T/C: 106 % of control

## CCCCCCC(O)/C=C/c1ccc(N(C)C)cc1 (stereo unspecified)
dose: 50.0 mg/kg/injection, schedule: Q01DX009 (ip), vehicle: Klucel (hydroxypropylcellulose) (HPC)
  T/C: 103 % of control
dose: 100.0 mg/kg/injection, schedule: Q01DX009 (ip), vehicle: Klucel (hydroxypropylcellulose) (HPC)
  T/C: 99 % of control
dose: 200.0 mg/kg/injection, schedule: Q01DX009 (ip), vehicle: Klucel (hydroxypropylcellulose) (HPC)
  T/C: 102 % of control

## O=C(O)C(=O)O.[Co].[NH-]CC[NH-].[NH-]CC[NH-]
dose: 12.5 mg/kg/injection, schedule: Q04DX002 (ip), vehicle: saline with Tween-80
  T/C: 100 % of control
dose: 25.0 mg/kg/injection, schedule: Q04DX002 (ip), vehicle: saline with Tween-80
  T/C: 100 % of control

## COc1cccc2c1C(=O)c1c(O)c3c(c(O)c1C2=O)C[C@@](O)(C(=O)O)C[C@@H]3OC1CC(N)C(O)C(C)O1 (stereo partly specified)
dose: 3.13 mg/kg/injection, schedule: Q01DX009 (ip), vehicle: water
  T/C: 88 % of control
dose: 6.25 mg/kg/injection, schedule: Q01DX009 (ip), vehicle: water
  T/C: 123 % of control
dose: 18.75 mg/kg/injection, schedule: Q01DX001 (ip), vehicle: water
  T/C: 114 % of control
dose: 37.5 mg/kg/injection, schedule: Q01DX001 (ip), vehicle: water
  T/C: 121 % of control
[2]
  T/C: 155 % of control
dose: 75.0 mg/kg/injection, schedule: Q01DX001 (ip), vehicle: water
  T/C: 114 % of control
[3]
  T/C: 158 % of control
dose: 150.0 mg/kg/injection, schedule: Q01DX001 (ip), vehicle: water
  T/C: 122 % of control
dose: 300.0 mg/kg/injection, schedule: Q01DX001 (ip), vehicle: water
  T/C: 123 % of control

## CCOC(=O)C1Cc2c(n(C3CCCCC3)c(=O)n(C)c2=O)OC1c1ccccc1 (stereo unspecified)
[9]
  T/C: 100 % of control
[10]
  T/C: 96 % of control
[11]
  T/C: 90 % of control

## COC(=O)C1CC(OC(C)=O)C(=O)[C@H]2C1(C)CC[C@H]1C(=O)O[C@H](c3ccoc3)CC12C (stereo partly specified)
dose: 19.0 mg/kg/injection, schedule: Q01DX005 (ip), vehicle: Klucel (hydroxypropylcellulose) (HPC)
  T/C: 94 % of control
dose: 38.0 mg/kg/injection, schedule: Q01DX005 (ip), vehicle: Klucel (hydroxypropylcellulose) (HPC)
  T/C: 87 % of control
dose: 76.0 mg/kg/injection, schedule: Q01DX005 (ip), vehicle: Klucel (hydroxypropylcellulose) (HPC)
  T/C: 90 % of control

## C[n+]1c(/C=C2/SC=C(c3ccccc3)S2)ccc2ccccc21
dose: 0.78 mg/kg/injection, schedule: Q04DX002 (ip), vehicle: saline with Tween-80
  T/C: 102 % of control and 119 % of control
dose: 1.56 mg/kg/injection, schedule: Q04DX002 (ip), vehicle: saline with Tween-80
  T/C: 109 % of control and 123 % of control
dose: 3.12 mg/kg/injection, schedule: Q04DX002 (ip), vehicle: saline with Tween-80
  T/C: 119 % of control

## C=CCc1cc(OC)c(OCC(=O)O)c(OC)c1
dose: 100.0 mg/kg/injection, schedule: Q04DX003 (ip), vehicle: Klucel (hydroxypropylcellulose) (HPC)
  T/C: 98 % of control
dose: 200.0 mg/kg/injection, schedule: Q04DX003 (ip), vehicle: Klucel (hydroxypropylcellulose) (HPC)
  T/C: 109 % of control

## CC(C)(C)N1C(=O)NCC1(C)C
[12]
  T/C: 105 % of control
[7]
  T/C: 100 % of control
[8]
  T/C: 98 % of control

## Cn1c(=O)c(C#N)c2n(C)c3ccccc3n2c1=O
[4]
  T/C: 93 % of control
[5]
  T/C: 89 % of control
[6]
  T/C: 89 % of control

## CC(C)(C)c1cc2c3c(c1)Oc1cc(C(C)(C)C)cc4c1C3(O)c1c(cc(C(C)(C)C)cc1O4)O2
dose: 1.56 mg/kg/injection, schedule: Q01DX005 (ip), vehicle: Klucel (hydroxypropylcellulose) (HPC)
  T/C: 107 % of control
dose: 3.12 mg/kg/injection, schedule: Q01DX005 (ip), vehicle: Klucel (hydroxypropylcellulose) (HPC)
  T/C: 104 % of control and 108 % of control
dose: 6.25 mg/kg/injection, schedule: Q01DX005 (ip), vehicle: Klucel (hydroxypropylcellulose) (HPC)
  T/C: 101 % of control and 110 % of control and 118 % of control
dose: 12.5 mg/kg/injection, schedule: Q01DX005 (ip), vehicle: Klucel (hydroxypropylcellulose) (HPC)
  T/C: 107 % of control and 111 % of control and 120 % of control
dose: 25.0 mg/kg/injection, schedule: Q01DX005 (ip), vehicle: Klucel (hydroxypropylcellulose) (HPC)
  T/C: 102 % of control

## COc1c(C(C)C)cc2c(c1OC)C13CCCC(C)(C)C1C(OC3=O)C2NC(=O)C(C)N(C)C (stereo unspecified)
dose: 12.5 mg/kg/injection, schedule: Q01DX009 (ip), vehicle: saline
  T/C: 100 % of control
dose: 25.0 mg/kg/injection, schedule: Q01DX009 (ip), vehicle: saline
  T/C: 98 % of control
[12]
  T/C: 100 % of control

## NC(=S)c1ccc2ccccc2c1
[9]
  T/C: 100 % of control
[10]
  T/C: 100 % of control
[11]
  T/C: 100 % of control
